Calls of active or inactive are those of the source. The calls are words filed in the database; no cut-off is given here.
Legend:
Ipomoea hederacea = assay: Pre-emergence herbicidal activity against Ipomoea hederacea (ivy-leaved morning glory) after 20 days; assay type: functional
Senna obtusifolia = assay: Preemergence herbicidal activity against Senna obtusifolia (sicklepod) after 20 days; assay type: functional
Galium aparine = assay: Pre-emergence herbicidal activity against Galium aparine after 20 days; assay type: functional
Amaranthus retroflexus = assay: Pre-emergence herbicidal activity against Amaranthus retroflexus after 20 days; assay type: functional
Xanthium strumarium = assay: Pre-emergence herbicidal activity against Xanthium strumarium (cocklebur) after 20 days; assay type: functional
Abutilon theophrasti = assay: Preemergence herbicidal activity against Abutilon theophrasti (velvetleaf) after 20 days; assay type: functional
[1] = target: 15-cis-phytoene desaturase (Synechococcus elongatus (strain PCC 7942) (Anacystis nidulans R2), UniProt P26294); assay: Inhibition of Synechococcus PCC 7942 phytoene desaturase expressed in Escherichia coli JM 101 by HPLC analysis; conditions: read-out: I50
Chenopodium album = assay: Pre-emergence herbicidal activity against Chenopodium album after 20 days; assay type: functional
[2] = target: 15-cis-phytoene desaturase (Synechococcus elongatus (strain PCC 7942) (Anacystis nidulans R2)) (UniProt P26294); assay: Inhibition of Synechococcus PCC 7942 phytoene desaturase expressed in Escherichia coli JM 101 assessed as decrease in zeta-carotene content by HPLC analysis
[3] = target: 15-cis-phytoene desaturase (Synechococcus elongatus (strain PCC 7942) (Anacystis nidulans R2)) (UniProt P26294); assay: Non-competitive inhibition of Synechococcus PCC 7942 phytoene desaturase expressed in Escherichia coli JM 101 by Lineweaver-Burk plot analysis
[4] = Ratio of ED50 for Xanthium strumarium to ED50 for Galium aparine; assay type: functional
[5] = Ratio of ED50 for Xanthium strumarium to ED50 for Chenopodium album; assay type: functional
[6] = Ratio of ED50 for Xanthium strumarium to ED50 for Cassia obtusifolia; assay type: functional

Sequence of 15-cis-phytoene desaturase (P26294 whole entry): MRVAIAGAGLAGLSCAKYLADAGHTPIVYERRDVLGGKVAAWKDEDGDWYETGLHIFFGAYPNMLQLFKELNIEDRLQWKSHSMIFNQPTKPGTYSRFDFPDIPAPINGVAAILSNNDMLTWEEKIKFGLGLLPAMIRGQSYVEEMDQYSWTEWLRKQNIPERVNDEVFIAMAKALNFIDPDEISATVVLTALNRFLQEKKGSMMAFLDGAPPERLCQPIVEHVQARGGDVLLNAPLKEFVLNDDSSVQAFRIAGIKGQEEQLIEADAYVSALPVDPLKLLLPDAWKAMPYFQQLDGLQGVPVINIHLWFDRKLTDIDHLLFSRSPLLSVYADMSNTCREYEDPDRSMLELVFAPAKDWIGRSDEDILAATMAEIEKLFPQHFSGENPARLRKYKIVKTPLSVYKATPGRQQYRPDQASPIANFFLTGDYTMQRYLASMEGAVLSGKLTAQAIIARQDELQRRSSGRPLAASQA
Sequence of 15-cis-phytoene desaturase (Synechococcus elongatus (strain PCC 7942) (Anacystis nidulans R2)) (P26294 whole entry): as above

Structure (SMILES)	IC50 [1] [µM]	inhibition [2]	inhibition [3]	ED50 (Ipomoea hederacea) [g/ha]	ED50 (Senna obtusifolia) [g/ha]	ED50 (Galium aparine) [g/ha]	ED50 (Amaranthus retroflexus) [g/ha]	ED50 (Xanthium strumarium) [g/ha]	ED50 (Abutilon theophrasti) [g/ha]	ED50 (Chenopodium album) [g/ha]	Ratio ED50 [4]	Ratio ED50 [5]	Ratio ED50 [6]
C[C@H]1CO[C@@H](Cc2cccc(C(F)(F)F)c2)C(=O)N1	3.8	–	–	1500	1550	1500	600	2300	500	500	–	–	–
C[C@H]1CO[C@H](Cc2cccc(C(F)(F)F)c2)C(=O)N1	0.17	Active	Active	130	200	130	50	340	50	25	–	–	–
CN1CCOC(Cc2cccc(C(F)(F)F)c2)C1=O (racemic)	> 100	–	–	500	500	500	1250	8900	1400	450	15	15	15
CN1CCOC(c2cccc(C(F)(F)F)c2)C1=O (racemic)	> 100	–	–	>10000	>10000	>10000	>10000	9500	5500	10000	–	–	–

Second part, led by results:

IC50 [1] [µM]	inhibition [2]	inhibition [3]	Structure (SMILES)	ED50 (Ipomoea hederacea) [g/ha]	ED50 (Senna obtusifolia) [g/ha]	ED50 (Galium aparine) [g/ha]	ED50 (Amaranthus retroflexus) [g/ha]	ED50 (Xanthium strumarium) [g/ha]	ED50 (Abutilon theophrasti) [g/ha]	ED50 (Chenopodium album) [g/ha]	Ratio ED50 [4]	Ratio ED50 [5]	Ratio ED50 [6]
19	–	–	C[C@@H]1CO[C@@H](Cc2cccc(C(F)(F)F)c2)C(=O)N1	4000	>10000	4000	>10000	>10000	–	>10000	–	–	–
3.2	–	–	O=C1NCCOC1SCc1cccc(C(F)(F)F)c1 (racemic)	>10000	>10000	>10000	>10000	>10000	>10000	>10000	–	–	–
6.5	–	–	O=C1NCCOC1Cc1cccc(C(F)(F)F)c1 (racemic)	380	350	380	80	800	150	140	–	–	–
8.5	–	–	O=C1NCCOC1Sc1cccc(C(F)(F)F)c1 (racemic)	4800	2500	4800	780	>10000	1000	850	–	–	–

— ChEMBL document CHEMBL3046936, “In vitro inhibition studies of phytoene desaturase by bleaching ketomorpholine derivatives” (J Agric Food Chem, 2001)
